Results taken from patent EP1280522B1, “COMBINATION OF CARBOXYALKYLETHERS WITH ANTIHYPERTENSIVES AND PHARMACEUTICAL USE” (WARNER-LAMBERT COMPANY, priority 2000, dated 2001).
“And” between values parts separate entries of the source, which are not always exact repeats. Identical values can stand only once.

Columns and labels:
[1] = system: SHR; assay: Antihypertensive effect on MABP in SHR by radiotelemetry: CI-1027, amlodipine and their combination (Example 2); type: in vivo, rats; settings: for MABP: peak MABP 4-6 hours postdose
Experimental: The general procedure of Example 1 was followed to evaluate the antihypertensive efficacy of the carboxyalkylether CI-1027 alone and in combination with the calcium channel blocker amlodipine.
Male SHR (15-20 weeks old, Charles River Laboratories) were prepared with indwelling aortic catheters and radiotransmitters for continuous measurement of arterial blood pressure and heart rate. Animals were allowed food and water ad libitum. Before dosing all rats were given a minimum of 7 days for recovery from surgery.
The experiment was carried out over 22 days in 3 groups of SHR. Group I served as a control and received 2 mL/kg/day of vehicle (same as in Example 1) for 22 consecutive days. Group II, used to determined the antihypertensive response to amlodipine monotherapy, was given vehicle for the first 13 consecutive days. Then on Day 14, amlodipine was added at a dose of 0.3 mg/kg/day for 3 consecutive days. The dose was then increased to 1 mg/kg/day for the next 3 days, and on the final 3 days, 3 mg/kg/day was given. To determine the response to CI-1027 monotherapy, Group III received a 13-day treatment with CI-1027 monotherapy at a dose of 30 mg/kg/day. The antihypertensive response to the combination therapy was determined by the addition of amlodipine to ongoing CI-1027 treatment on Day 14.
Drugs were suspended or dissolved in vehicle that contains 96% water, 3% carboxymethocellulose, and 1% tween 88. Compounds were given at 9 AM daily by oral gavage in a volume of 2 mL/kg. The combination of CI-1027 and amlodipine was given as a single gavage in a volume of 2 mL/kg.

[2] = system: spontaneously hypertensive rats (SHR); assay: Antihypertensive effect on MABP in SHR by radiotelemetry: CI-1027, quinapril and their combination (Example 1); type: in vivo; settings: for MABP: peak MABP 2-4 hours postdose
Experimental: The antihypertensive effects of the carboxyalkylether compound of Formula III (CI-1027), alone and in combination with an antihypertensive agent such as quinapril (CI-906), were evaluated in rats according to the following protocol.
Male spontaneously hypertensive rats (SHR, 15-20 weeks old, Charles River Laboratories, Wilmington, Massachusetts) were prepared with indwelling aortic catheters and radiotransmitters (Data Sciences International, Saint Paul, Minnesota). The radiotransmitters provided continuous measurement of aortic blood pressure waveform. From the aortic blood pressure waveform a Ponemah (Gould Instruments Inc, Valley View, Ohio) computer provided mean arterial blood pressure (MABP) and heart rate values continuously as one-minute averages. One-minute data was then summarized at 15-minute intervals using Excel (Microsoft Corporation, Redmond, Washington) spreadsheets. Animals were allowed food and water ad libitum. To allow for recovery following surgery, rats were not dosed for a minimum of 7 days. Day 0 predose blood pressures were obtained by averaging eight 15-minute MABP measurements made 2 hours before dosing. To obtain the peak response to treatment (Days 0, 12, 16, 19, and 22), the 15-minute MABP measurements in the interval between 2 and 4 hours post-dose were averaged.
Test compounds were given in a vehicle that contained 96% water, 3% carbomethocellulose (Sigma Chemical, Saint Louis, Missouri) and 1% tween 88 (polyoxyethylenesorbitan monooleate, Sigma Chemical). CI-1027 and quinapril monotherapy were administered at 8:30 AM daily by oral gavage in a volume of 2 mL/kg. The combination of CI-1027 and quinapril was given as a single gavage in a volume of 2 mL/kg.
The experiment was carried out over 22 days in 4 groups of animals. Group I served as a control and received 2 mL/kglday of vehicle for 22 consecutive days. Group II, used to determine the antihypertensive response to quinapril monotherapy, was given vehicle for the first 12 to 13 consecutive days. Then on Day 13 to 14 quinapril was added at a dose of 0.3 mg/kg/day for 3 to 4 consecutive days; the dose was then increased to 1 mg/kg/day for the next 3 days, and on the final 3 days, 3 mg/kg/day was administered. To determine the response to CI-1027 monotherapy, Groups III and IV received 12-day treatment with CI-1027 monotherapy at doses of 30 and 100 mg/kg/day, respectively. To determine the antihypertensive response to the combination therapy quinapril, was added to the ongoing CI-1027 treatment (Day 13-14) using the rising dose protocol described for Group II (quinapril monotherapy).

For CCOC(=O)C1=C(COCCN)NC(C)=C(C(=O)OC)C1c1ccccc1Cl (stereo not drawn) [Amlodipine, amlodipine], the MABP ([1]; Group 2, Day 16, Amlodipine 0.3 mg/kg/day oral gavage, mean ± standard error) was “Amlodipine (0.3 mg/kg/day) 140 ± 6 mm Hg”, the MABP ([1]; Group 2, Day 19, Amlodipine 1 mg/kg/day oral gavage) was “Amlodipine (1 mg/kg/day) 131 ± 5 mm Hg” and the minimal effective dose ([1]; Rattus norvegicus, po, amlodipine monotherapy (Group II), rising dose protocol, read-out: threshold antihypertensive dose) was 1 mg/kg/day.

For CC(C)(CCCCOCCCCC(C)(C)C(=O)O)C(=O)O [CI-1027], the antihypertensive activity ([2]; CI-1027 monotherapy, 12 days, 30 and 100 mg/kg/day) was “modest”, the MABP ([2]; Group 3, Day 0, CI-1027 30 mg/kg/day oral gavage, predose 149 ± 3) was 145 ± 4 mm Hg and the MABP ([2]; Group 3, Day 12, CI-1027 30 mg/kg/day oral gavage, 30 mg/kg/day) was 131 mm Hg and 131 ± 3 mm Hg. For the same compound, the MABP ([2]; Group 4, Day 0, CI-1027 100 mg/kg/day oral gavage, predose 141 ± 4) was 141 ± 4 mm Hg and the MABP ([1]; Group 3, Day 0, CI-1027 30 mg/kg/day oral gavage, predose 131 ± 3) was “CI-1027 (30 mg/kg/day) 129 ± 4 mm Hg”.

For CCOC(=O)[C@H](CCc1ccccc1)N[C@@H](C)C(=O)N1Cc2ccccc2C[C@H]1C(=O)O [Quinapril, quinapril], the MABP ([2]; Group 2, Day 16, Quinapril 0.3 mg/kg/day oral gavage, mean ± standard error) was 122 ± 5 mm Hg, the MABP ([2]; Group 2, Day 19, Quinapril 1 mg/kg/day oral gavage, mean ± standard error) was 121 ± 4 mm Hg and the MABP ([2]; Group 2, Day 22, Quinapril 3 mg/kg/day oral gavage, mean ± standard error) was 117 mm Hg and 117 ± 4 mm Hg. For the same compound, the “antihypertensive response at 3 mg/kg/day greater than noted at 0.3 mg/kg/day” value ([2]; Quinapril monotherapy, rising dose protocol, difference between 3 and 0.3 mg/kg/day) was 5 mm Hg.
